Source: patent publication US9938292B2 (GUANGDONG ZHONGSHENG PHARMACEUTICAL CO., LTD, priority 2014, dated 2018)

These molecules were tested on Hedgehog signaling pathway (assay: Gli-Luc luciferase reporter gene assay in C3H10T1/2/Gli-Luc cells under Shh-N stimulation). Conditions: 24 h, luciferase RLU, read-out: biological activity: IC50 of the inhibitory activities of compounds on the hedgehog pathway.
Assay type: cell-based
Outline: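 C3H10T1/2 cells stably carrying a Gli-responsive luciferase reporter were stimulated with 30 nM Shh-N conditioned medium plus compound (7-point dilutions, duplicate) for 24 h at 37 °C. Luciferase luminescence read from lysates; IC50 by sigmoidal fit of RLU versus log concentration.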

IC50 [nM] | Structure (SMILES)
≤ 50 | COc1c(-c2cnc(N3C[C@@H](C)O[C@@H](C)C3)cc2C)cnc2c(-c3ccc(C#N)cc3)cccc12 [Embodiment 167]
≤ 50 | COc1c(-c2cnc(N3C[C@@H](C)O[C@@H](C)C3)cn2)cnc2c(-c3ccc(C#N)cc3)cccc12 [Embodiment 177]

Same assay, conditions: Mus musculus, C3H 10T1/2, 24 h, luciferase RLU, read-out: biological activity: IC50 of the inhibitory activities of compounds on the hedgehog pathway

Structure (SMILES) | IC50 [nM]
C[C@@H]1CN(c2ccc(-c3cnc4c(-c5ccc(C#N)cc5)cccc4c3N3CCC3)cn2)C[C@H](C)O1 [Embodiment 139, 4-(4-(azetidin-1-yl)-3-(6-((2S,6R)-2,6-dimethylmorpholino)pyridin-3-yl)quinolin-8-yl) benzonitrile] | 50 to 100
CCC(=O)N1[C@H](C)CN(c2ccc(-c3cnc4c(-c5ccc(C#N)cc5)cccc4c3O)cn2)C[C@@H]1C [Embodiment 140, 4-(3-(6-((3S,5R)-3,5-dimethyl-4-propionylpiperazin-1-yl)pyridin-3-yl)-4-hydroxyquinolin-8-yl)benzonitrile] | 500 to 1000
COc1c(-c2ccc(N3C[C@@H](C)O[C@@H](C)C3)cc2)c(C(F)(F)F)nc2c(-c3ccc(C#N)cc3)cccc12 [Embodiment 141, 4-(3-(4-((2S,6R)-2,6-dimethylmorpholino)phenyl)-4-methoxy-2-(trifluoromethyl)quinolin-8-yl)benzonitrile] | 100 to 500
COc1cc(-c2ccc(N3C[C@@H](C)O[C@@H](C)C3)cc2)nc2cccc(-c3ccc(C#N)cc3)c12 [Embodiment 142, 4-(2-(4-((2R,6S)-2,6-dimethylmorpholino)phenyl)-4-methoxyquinolin-5-yl) benzonitrile] | 500 to 1000
CC(C)Oc1c(-c2ccc(N3C[C@@H](C)O[C@@H](C)C3)cc2)cnc2c(-c3ccc(C#N)cc3)cccc12 [Embodiment 144] | 100 to 500
C[C@@H]1CN(c2ccc(-c3cnc4c(-c5ccc(C#N)cc5)cccc4c3OCCN(C)C)cc2)C[C@H](C)O1 [Embodiment 146] | 500 to 1000
COc1c(-c2ccc(N3C[C@@H](C)O[C@@H](C)C3)cc2)cnc2c(-c3ccc(C#N)cc3)ccnc12 [Embodiment 147, 4-(7-(4-((2S,6R)-2,6-dimethylmorpholino)phenyl)-8-methoxy-1,5-naphthyridin-4-yl) benzonitrile] | 100 to 500
COc1c(-c2ccc(N3C[C@@H](C)O[C@@H](C)C3)cc2)cnc2c(-c3ccc(C#N)cc3)nccc12 [Embodiment 148, 4-(3-(4-((2S,6R)-2,6-dimethylmorpholino)phenyl)-4-methoxy-1,7-naphthyridin-8-yl) benzonitrile] | 50 to 100
C[C@@H]1CN(c2ccc(-c3c([O-])c4cccc(-c5ccc(C#N)cc5)c4n[n+]3C)cc2)C[C@H](C)O1 [Embodiment 150, 8-(4-cyanophenyl)-3-(4-((2R,6S)-2,6-dimethylmorpholino)phenyl)-2-methylcinnolin-2-ium-4-olate] | 500 to 1000
C[C@@H]1CN(c2ccc(-c3cnc4c(-c5ccc(C#N)cc5)cncc4c3Cl)cc2)C[C@H](C)O1 [Embodiment 153, 4-(4-chloro-3-(4-((2S,6R)-2,6-dimethylmorpholino)phenyl)-1,6-naphthyridin-8-yl) benzonitrile] | 100 to 500
C[C@@H]1CN(c2ccc(-c3cnc4c(-c5ccc(C#N)cc5)cncc4c3N(C)C)cc2)C[C@H](C)O1 [Embodiment 155, 4-(4-(dimethylamino)-3-(4-((2S,6R)-2,6-dimethylmorpholino)phenyl)-1,6-naphthyridin-8-yl)benzonitrile] | 100 to 500
COc1c(-c2ccc(N3C[C@@H](C)O[C@@H](C)C3)cc2)cnc2c1CCCC2(O)c1ccc(C#N)cc1 (stereo partly drawn) [Embodiment 156, 4-(3-(4-((2S,6R)-2,6-dimethylmorpholino)phenyl)-8-hydroxy-4-methoxy-5,6,7,8-tetra hydroquinolin-8-yl)benzonitrile] | 500 to 1000
COc1c(-c2ccc(N3C[C@@H](C)O[C@@H](C)C3)cc2)cnc2c1CCCC2(OC)c1ccc(C#N)cc1 (stereo partly drawn) [Embodiment 157, 4-(3-(4-((2S,6R)-2,6-dimethylmorpholino)phenyl)-4,8-dimethoxy-5,6,7,8-tetrahydroquinolin-8-yl)benzonitrile] | 1000 to 5000
COc1c(-c2ccc(N3C[C@@H](C)O[C@@H](C)C3)nc2)cnc2c(-c3ccc(C)nc3)cccc12 [Embodiment 163] | 100 to 500
COc1c(-c2ccc(N3C[C@@H](C)O[C@@H](C)C3)nc2)cnc2c(-c3ccc(C(C)C)nc3Cl)cccc12 [Embodiment 164] | 100 to 500
COc1c(-c2ccc(N3C[C@@H](C)O[C@@H](C)C3)nc2)cnc2c(-c3ccnn3C)cccc12 [Embodiment 165] | 100 to 500
COc1c(-c2ccc(N3C[C@@H](C)O[C@@H](C)C3)cc2Cl)cnc2c(-c3ccc(C#N)cc3)cccc12 [Embodiment 170] | ≤ 50
COc1c(-c2ccc(N3C[C@@H](C)O[C@@H](C)C3)cn2)cnc2c(-c3ccc(C#N)cc3)cccc12 [Embodiment 171] | ≤ 50
COc1c(-c2ccc(N3C[C@@H](C)O[C@@H](C)C3)c(F)c2)cnc2c(-c3ccc(C#N)cc3)cccc12 [Embodiment 172] | ≤ 50
COc1c(-c2ccc(N3C[C@@H](C)O[C@@H](C)C3)c(Cl)c2)cnc2c(-c3ccc(C#N)cc3)cccc12 [Embodiment 173] | 100 to 500
COc1c(-c2ccc(N3C[C@@H](C)O[C@@H](C)C3)c(C)c2)cnc2c(-c3ccc(C#N)cc3)cccc12 [Embodiment 174] | 100 to 500
COc1c(-c2ccc(N3C[C@@H](C)O[C@@H](C)C3)nn2)cnc2c(-c3ccc(C#N)cc3)cccc12 [Embodiment 175, 4-(3-(6-((2S,6R)-2,6-dimethylmorpholino)pyridazin-3-yl)-4-methoxyquinolin-8-yl) benzonitrile] | 100 to 500
COc1c(-c2cnc(N3C[C@@H](C)O[C@@H](C)C3)nc2)cnc2c(-c3ccc(C#N)cc3)cccc12 [Embodiment 176, 4-(3-(2-((2S,6R)-2,6-dimethylmorpholino)pyrimidin-5-yl)-4-methoxyquinolin-8-yl) benzonitrile] | ≤ 50
COc1c(-c2ccc(C(=O)N3C[C@@H](C)O[C@@H](C)C3)s2)cnc2c(-c3ccc(C#N)cc3)cccc12 [Embodiment 178, 4-(3-(5-((2S,6R)-2,6-dimethylmorpholine-4-carbonyl)thiophen-2-yl)-4-methoxyquinolin-8-yl)benzonitrile] | 100 to 500
COc1c(-c2csc(N3C[C@@H](C)O[C@@H](C)C3)n2)cnc2c(-c3ccc(C#N)cc3)cccc12 [Embodiment 179, 4-(3-(2-(2,6-dimethylmorpholin-4-yl)thiazol-4-yl)-4-methoxyquinolin-8-yl) benzonitrile] | 500 to 1000
CCC(=O)N1[C@H](C)CN(c2ccc(-c3cnc4c(-c5ccc(C#N)cc5)cccc4c3OC)cc2)C[C@@H]1C [Embodiment 180, 4-(3-(4-((3S, 5R)-3,5-dimethyl-4-propionylpiperazin-1-yl)phenyl)-4-methoxyquinolin-8-yl)benzonitrile] | ≤ 50
COc1c(-c2ccc(N3C[C@@H](C)N(C(=O)c4ccccc4)[C@@H](C)C3)cc2)cnc2c(-c3ccc(C#N)cc3)cccc12 [Embodiment 181] | ≤ 50

The remaining lines, values ahead:

IC50 [nM] | Structure (SMILES)
≤ 50 | CCOc1c(-c2ccc(N3C[C@@H](C)O[C@@H](C)C3)cc2)cnc2c(-c3ccc(C#N)cc3)cccc12 [Embodiment 143, 4-(3-(4-((2S,6R)-2,6-dimethylmorpholino)phenyl)-4-ethoxyquinolin-8-yl)benzonitrile]
≤ 50 | C[C@@H]1CN(c2ccc(-c3cnc4c(-c5ccc(C#N)cc5)cccc4c3OC(F)F)cc2)C[C@H](C)O1 [Embodiment 145]
≤ 50 | CCC(=O)N1[C@H](C)CN(c2ccc(-c3cnc4c(-c5ccc(C#N)cc5)nccc4c3OC)cn2)C[C@@H]1C [Embodiment 149, 4-(3-(6-((3S,5R)-3,5-dimethyl-4-propionylpiperazizin-1-yl)pyridin-3-yl)-4-methoxy-1,7-naphthyridin-8-yl)benzonitrile]
≤ 50 | CCC(=O)N1[C@H](C)CN(c2ccc(-c3nnc4c(-c5ccc(C#N)cc5)cccc4c3OC)cn2)C[C@@H]1C [Embodiment 151, 4-(3-(6-(3,5-dimethyl-4-propionylpiperazin-1-yl)pyridin-3-yl)-4-methoxycinnolin-8-yl)benzonitrile]
≤ 50 | COc1c(-c2ccc(N3C[C@@H](C)O[C@@H](C)C3)cc2)nnc2c(-c3ccc(C#N)cc3)cccc12 [Embodiment 152, 4-(3-(4-((2R,6S)-2,6-dimethylmorpholino)phenyl)-4-methoxycinnolin-8-yl) benzonitrile]
≤ 50 | COc1c(-c2ccc(N3C[C@@H](C)O[C@@H](C)C3)nc2)cnc2c(-c3ccc(C#N)cc3)cccc12 [Embodiment 158, 4-(3-(6-((2S,6R)-2,6-dimethylmorpholino)pyridin-3-yl)-4-methoxyquinolin-8-yl) benzonitrile]
≤ 50 | COc1c(-c2ccc(N3C[C@@H](C)O[C@@H](C)C3)nc2)cnc2c(-c3ccc(C(F)(F)F)cc3)cccc12 [Embodiment 159]
≤ 50 | COc1c(-c2ccc(N3C[C@@H](C)O[C@@H](C)C3)nc2)cnc2c(-c3ccc(OC(F)(F)F)cc3)cccc12 [Embodiment 160]
≤ 50 | COc1c(-c2ccc(N3C[C@@H](C)O[C@@H](C)C3)nc2)cnc2c(-c3ccc(S(C)(=O)=O)cc3)cccc12 [Embodiment 161]
≤ 50 | COc1c(-c2ccc(N3C[C@@H](C)O[C@@H](C)C3)nc2)cnc2c(-c3ccccc3)cccc12 [Embodiment 162]
≤ 50 | COc1c(-c2ccc(N3C[C@@H](C)O[C@@H](C)C3)nc2C)cnc2c(-c3ccc(C#N)cc3)cccc12 [Embodiment 166, 4-(3-(6-((2S,6R)-2,6-dimethylmorpholino)-2-methylpyridin-3-yl)-4-methoxyquinolin-8-yl)benzonitrile]
≤ 50 | COc1c(-c2ccc(N3C[C@@H](C)O[C@@H](C)C3)cc2F)cnc2c(-c3ccc(C#N)cc3)cccc12 [Embodiment 168, 4-(3-(4-((2S,6R)-2,6-dimethylmorpholino)-2-fluorophenyl)-4-methoxyquinolin-8-yl) benzonitrile]
≤ 50 | COc1c(-c2ccc(N3C[C@@H](C)O[C@@H](C)C3)cc2C)cnc2c(-c3ccc(C#N)cc3)cccc12 [Embodiment 169]
